SMILES strings stand for the structures.

A short description of series [1]: in vitro. Conditions: dog, MDCK-MDR1.
Series [2] can be described thus: in vitro. Conditions: mouse, liver microsomes.

As to `Brc1ccc2[nH]nc(C3=CCCNC3)c2c1`, in “in vitro [1]”, the Papp A→B (as a rule, how fast a substance crosses the layer from the apical side) at 5 µM was 7.9 ×10⁻⁶ cm/s. Moreover, in “in vitro [2]”, the CLhep predicted at […], 1 µM is 57 mL/min/kg.

These data come from ChEMBL document CHEMBL5357083 (ACS Med Chem Lett, 2024).
